In series [1] the test system is rats. The series is described as follows: Rat model: powder inhaled, blood glucose compared with insulin formulations without enhancer. On Effect: key: +: significant decrease in blood glucose level; (+): moderate decrease in blood glucose level; −: no or very small decrease in blood glucose level. The format is in vivo. To be noted: for improvement in absorption of insulin: in vivo model. As to the method:
Each of the compounds listed in Table III was tested for its ability to enhance uptake of insulin, and thus affect blood glucose levels, in a rat model. Various forms of insulin were employed: recombinant or semisynthetic human or bovine. Each formulation was prepared as above, drying and processing the insulin/enhancer or insulin/enhancer/lactose solution to produce an inhalable powder.
The powder was administered to rats by inhalation, and the blood glucose levels of the rats were subsequently monitored. These levels were compared to the corresponding values obtained from rats which had inhaled insulin formulations without enhancer.

In series [2] the test system is CaCo-2 epithelial cell monolayer. The series is described as follows: In vitro transport of insulin and markers across CaCo-2 epithelial cell monolayer. It counts as in vitro ADME. To be noted: 60 min, 37° C. The source says: A standard in vitro assay utilizing an epithelial cell line, CaCo-2 (available through the American Type Culture Collection (ATCC), Rockville, Md., USA), has been developed to assess the ability of various enhancer compounds to promote transport of insulin and other markers across an epithelial cell monolayer, as a model for the epithelial cell layer which functions in the lung to separate the alveolus from the pulmonary blood supply. In this assay, the enhancer and insulin or other marker are dissolved in aqueous solution at various proportions and/or concentrations, and applied to the apical side of the cell monolayer. After 60 min incubation at 37° C. and 95% RH (relative humidity), the amount of the marker on the basolateral side of the cells is determined: for example, by use of a radioactively labelled marker. […] This is true even when insulin is added to the enhancer/mannitol mixture (1:3 sodium caprate:insulin, by weight) (FIG. 9). This concentration of sodium caprate (16 mM) was also found to promote absorption of insulin across the cell monolayer. The amount of insulin which passed across the monolayer doubled in the presence of 16 mM sodium caprate, compared to the amount in the absence of any enhancer. […]
Background: Caco-2 monolayers are a common model of the intestinal barrier.

[3] abbreviates: rats, inhaled powder, Enhancer:Insulin:lactose 2:4:94.
Where [4] appears, read: rats, inhaled powder, Enhancer:Insulin:lactose 4:4:92.
The mark [5] stands for this setting: tested as enhancer in the method of the invention, animal (rat) model.
Setting [6] is: rats, inhaled powder, Enhancer:Insulin:lactose 25:75:0.

For `CCCCCCCCCC(=O)OC[C@H](COP(=O)([O-])OCC[N+](C)(C)C)OC(=O)CCCCCCCCC` [Didecanoylphospatidylcholine], the Effect entry in series [1] (rats, inhaled powder, Enhancer:Insulin:lactose 4:4:94) is reported as “−”.
For the molecule `CCCCCCCC(=O)OCC(COP(=O)([O-])OCC[N+](C)(C)C)OC(=O)CCCCCCC` (stereo not shown) [Dioctanoylphosphatidylcholine], the Effect entry in series [1] (setting [3]) is “(+)”.
`CCCCCCCCOC1O[C@H](CO)[C@@H](O)[C@H](O)[C@H]1O` (stereo partly shown) [Octylglucopyranoside]: in series [1] (rat, in vivo), the “performance as enhancer of insulin absorption in the lung (in words)” value (“performance as enhancer” for short) was “some absorption enhancing properties”. Moreover, the Effect entry in series [1] (setting [4]) was “(+)”.
Turning to `CCCCCCCCCC(=O)[O-].[K+]` [Potassium caprate], the Effect result in series [1] (rats, inhaled powder, Enhancer:Insulin:lactose 27:73:0) is “+”. Further, the “performance as enhancer” value in series [1] (setting [5]) is “effective”.
As to `CCCCCCCC/C=C\CCCCCCCC(=O)[O-].[K+]` [Potassium oleate], in series [1] (setting [4]), the Effect entry was “+”.
With `CCCCCCCCCC(=O)[O-].[Na+]` [Sodium caprate], in series [2] (16 mM sodium caprate, apical to basolateral), the “amount of insulin which passed across the monolayer, compared to absence of any enhancer” value is recorded as “doubled”. Further, the “amount of marker (mannitol) which appears on the basolateral side” value in series [2] (at least up to 16 mM sodium caprate, FIG. 8) is recorded as “dependent upon the concentration of enhancer used”. In addition, the “improvement in absorption of insulin” value in series [1] (insulin/sodium caprate 50/50 w/w (50% sodium caprate)) was “Significant improvement”; in series [1] (insulin/sodium caprate 75/25 w/w (25% sodium caprate)), “Significant improvement”; in series [1] (insulin/sodium caprate 82.5/17.5 w/w (17.5% sodium caprate)) it was “intermediate”; in series [1] (insulin/sodium caprate 90/10 w/w (10% sodium caprate)), “poor improvement”. For the same molecule, the Effect entry in series [1] (setting [4]) is “+”; in series [1] (rats, inhaled powder, Enhancer:Insulin:lactose 10:90:0), “(+)”; in series [1] (rats, inhaled powder, Enhancer:Insulin:lactose 17.5:82.5:0), “(+)”; in series [1] (setting [6]), “+”. Further, the “performance as enhancer” value in series [1] (setting [5]) is listed as “perform well”.
Regarding `CCCCCCCC(=O)[O-].[Na+]` [Sodium caprylate], in series [1] (setting [6]), the Effect result is “−”.
Turning to `C[C@H](CCC(=O)NCC(=O)[O-])[C@H]1CC[C@H]2[C@@H]3[C@H](O)C[C@@H]4C[C@H](O)CC[C@]4(C)[C@H]3C[C@H](O)[C@]12C.[Na+]` [Sodium glycocholate], in series [1] (rat, in vivo), the “performance as enhancer” value is reported as “effectively enhance insulin absorption in the lung”. Further, the Effect result in series [1] (setting [4]) is reported as “+”.
As to `CCCCCCCCCCCC(=O)[O-].[Na+]` [Sodium laurate], the Effect entry in series [1] (setting [6]) is “(+)”. Also, the “performance as enhancer” value in series [1] (setting [5]) is “perform well”.
Take `CCCCCCCCCCCCCC(=O)[O-].[Na+]` [Sodium myristate]: the Effect result in series [1] (rats, inhaled powder, Enhancer:Insulin:lactose 30:70:0) is recorded as “+”. For the same molecule, the “performance as enhancer” value in series [1] (setting [5]) is “perform well”.
`C[C@H](CCC(=O)NCCS(=O)(=O)O)[C@H]1CC[C@H]2[C@@H]3[C@H](O)C[C@@H]4C[C@H](O)CC[C@]4(C)[C@H]3C[C@H](O)[C@]12C` [Sodium taurocholate]: in series [1] (rat, in vivo), the Effect result is given as “+” and the “performance as enhancer” value is on record as “effectively enhance insulin absorption in the lung”.
Consider `CC(=O)OC1CC2(C)C(CC(O)C3C4(C)CCC(O)C(C)C4CCC32C)C1=C(CCCC(C)C)C(=O)NCCS(=O)(=O)O` (stereo not shown) [Sodium taurodihydrofusidate], for which the “performance as enhancer” value in series [1] (rat, in vivo) was “effectively enhance insulin absorption in the lung”. Besides, in series [1] (setting [3]), the Effect entry is given as “+”.
Regarding `C[C@H](CCC(=O)[O-])[C@H]1CC[C@H]2[C@@H]3[C@@H](O)C[C@@H]4C[C@H](O)CC[C@]4(C)[C@H]3CC[C@]12C.[Na+]` [Sodium ursodeoxycholate], the “performance as enhancer” value in series [1] (rat, in vivo) is recorded as “effectively enhance insulin absorption in the lung”. Moreover, the Effect result in series [1] (setting [4]) was “+”.
With Dimethyl-β-cyclodextrin, the “performance as enhancer” value in series [1] (rat, in vivo) is reported as “absorption enhancing effect”. Further, the Effect entry in series [1] (rats, inhaled powder, Enhancer:Insulin:lactose 75:25:0) is on record as “+”.
For the molecule Lysine caprate, in series [1] (rats, inhaled powder, Enhancer:Insulin:lactose 35:65:0), the Effect entry is on record as “+”. Moreover, in series [1] (setting [5]), the “performance as enhancer” value is “effective”.
As to Lysophosphatidylcholine, the Effect entry in series [1] (setting [4]) is on record as “+”. In series [1] (setting [5]), the “performance as enhancer” value is on record as “effective enhancer”.

Source of the values: patent publication US6846801B1, “Systemic administration of a therapeutic preparation” (AstraZeneca AB, priority 1993, dated 2005).
